# Experimental data published in patent publication US5885988A, “Benzo[g]quinoline derivatives” (Novartis AG, priority 1995, dated 1999).
# Legend:
# intruder mouse test = format: in vivo; details: for social withdrawal in the intruder mouse test, standard anti-manic drugs: 3-30 mg/kg s.c.
# Description: (§1) For all the above indications the preferred compound is [3R,4aR,10aR]-1,2,3,4,4a,5,10, 10a-octahydro-6-methoxy-1 -methyl-benzo[g]quinoline-3-carboxylic acid 4-(4-nitro-phenyl)-piperazine amide, which is the compound of example 1.
# [1] = Matched Pairs Situation test; format: in vivo, mice; details: for potency compared with the compound of example 1: Matched Pairs Situation test and intruder mouse test, 3-30 mg/kg s.c. versus 1-10 mg/kg s.c.
# Description: Furthermore at said doses the compounds of the invention reduce aggressive behavior (attacks, chases, bites) in the Matched Pairs Situation test in mice [Dixon et al., J. Clin. Psychiatry 55: (9) [Suppl. B] 4-7 (1994)]. […] They are therefore indicated for the treatment of affective disorders including bipolar disorders e.g. manic-depressive psychoses, extreme psychotic states e.g. mania, schizophrenia, and excessive mood swings where behavioral stabilization is desired. In addition, the compounds are indicated in anxiety states, generalized anxiety as well as social and agoraphobia, as well as those behavioural states characterized by social withdrawal e.g. negative symptoms.
# as §1
# rat sst1 receptors = rat sst1 receptors (Rattus norvegicus, UniProt P28646); experiment: radioligand binding, rat sst1 receptors; details: read-out: affinity for rat sst1 receptors, pIC50 (converted)
# Sequence of rat sst1 receptors (P28646 whole entry): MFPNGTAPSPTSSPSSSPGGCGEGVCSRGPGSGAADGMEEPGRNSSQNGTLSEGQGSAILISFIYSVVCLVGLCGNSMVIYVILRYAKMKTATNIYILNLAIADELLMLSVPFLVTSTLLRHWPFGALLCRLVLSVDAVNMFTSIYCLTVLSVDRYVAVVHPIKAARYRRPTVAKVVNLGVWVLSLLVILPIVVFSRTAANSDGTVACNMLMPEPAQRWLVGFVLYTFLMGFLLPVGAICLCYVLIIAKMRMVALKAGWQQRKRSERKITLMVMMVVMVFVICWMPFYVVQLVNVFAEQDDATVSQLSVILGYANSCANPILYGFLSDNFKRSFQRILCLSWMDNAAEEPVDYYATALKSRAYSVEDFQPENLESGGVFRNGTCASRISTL
# Description: (§2) In particular the agents of the invention bind to somatostatin receptors.
# as §1
# [2] = target: T1, recombinant human sst1 receptors (Homo sapiens, UniProt P30872); experiment: radioligand binding, recombinant human sst1 receptors; details: read-out: affinity for recombinant human sst1 receptors, pIC50 (converted)
# T1 construct: expressed in transfected cells
# T1 sequence (P30872 whole entry): as the sequence (P28646 whole entry) above, with P8S, T11S, S16P, G20S, V25G, C26G, S32A, S45A, A385T, S389T counted along it
# Description: as §2, §1
# [3] = tested on: neurotransmitter receptors; experiment: activity at a wide range of neurotransmitter receptors; format: binding
# Description: as §1
IC50 (rat sst1 receptors) [µM],IC50 [2] [µM],activity for a wide range of neurotransmitter receptors [3],Compound,"social withdrawal in the intruder mouse test, standard anti-manic drugs (intruder mouse test)",potency compared with the compound of example 1 [1],social withdrawal in the intruder mouse test (intruder mouse test; 1-10 mg/kg s.c.),aggressive behavior in the Matched Pairs Situation test ([1]; 1-10 mg/kg s.c.)
–,–,–,[Li] [lithium],These effects are also observed,less potent,–,–
–,–,–,NC(=O)N1c2ccccc2C=Cc2ccccc21 [carbamazepine],These effects are also observed,less potent,–,–
0.000794,0.02,without significant activity,"COc1cccc2c1C[C@H]1C[C@@H](C(=O)N3CCN(c4ccc([N+](=O)[O-])cc4)CC3)CN(C)[C@@H]1C2 [Example 1, [3R,4aR,10aR]-1,2,3,4,4a ,5,10,10a-octahydro-6-methoxy-1-methyl-benzo[g]quinoline-3-carboxylic acid 4-(4-nitro-phenyl)-piperazine amide]",–,–,reverses social withdrawal,clearly lowers aggressive behavior
